Measured values: patent publication US6964975B2, “Isoxazole and thiazole compounds and use thereof as medicine” (Kirin Beer Kabushiki Kaisha, priority 2000, dated 2005)

Columns and labels:
human EDG-2 = target: T1, human EDG-2 (Homo sapiens, UniProt Q92633); assay: Inhibitory activity on LPA-induced elevation of intracellular Ca2+ level; format: cell-based; conditions: 50% inhibition of elevation of intracellular Ca2+ level by LPA, human EDG-2/HepG2 cells, fura-2
T1 construct: cDNA of the cloned human EDG-2 was introduced into pEFneo, which is an animal expression vector; expressed in transfected cells; host or cells: HepG2
Outline: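 Stably transfected HepG2 cells loaded with fura-2/AM (45 min, room temperature) in 0.1% BSA HEPES buffer. Test compound added before LPA, and the LPA-evoked intracellular Ca2+ rise measured fluorometrically. IC50 for inhibition derived.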

Human EDG-2/HepG2 cells = assay: Inhibitory activity on LPA-accelerated [3H] thymidine incorporation (cell proliferation); format: cell-based; conditions: 50% inhibition of LPA-induced increase of [3H] thymidine incorporation
Description: The human EDG-2 expression plasmid was introduced into HepG2 cells by electroporation. After the introduction, culturing was continued while exchanging selective media every 3 to 4 days, thereby obtaining an expressed colony. Regarding these cells, Ca-influx and cell-proliferation by LPA, level of [^3H] LPA binding and the like were inspected to select a cell line which highly expresses human EDG-2 (human EDG-2/HepG2).
Human EDG-2/HepG2 cells suspended in 10% bovine serum-containing DMEM (Dulbecco's modified eagle medium) were plated on a 96-well plate and, on the next day, the medium was exchanged with serum-free DMEM. 24 hours later, the medium was exchanged with DMEM containing LPA or DMEM containing no LPA, cells were cultured for further 16 hours, and [^3H] thymidine was then added. After culturing for 8 hours subsequent to the addition of [^3H] thymidine, cells were washed with PBS (phosphate-buffered saline), and the amount of [^3H] thymidine incorporated into the cells were assayed by Betaplate filter counter system (Amersham Pharmacia Biotech). The difference between the amount of [^3H] thymidine incorporated in the LPA-added well and the amount of [^3H] thymidine incorporated in the well containing no LPA represents the amount of [^3H] thymidine incorporation accelerated by LPA. […] The test compounds were added immediately before the LPA addition.

[1] = system: lactic acid induced peripheral circulatory disturbance in rats; assay: Rat model of lactic acid induced peripheral circulatory disturbance (lesion score); format: in vivo; conditions: for Score of lesion: mean ± S.E.
Description: Peripheral arterial obstructions including clinical arteriosclerosis obliterans (ASO) are, in common, chronic diseases, which often cause ulcer or necrosis in lower limbs, and lesions are worsened by arterial thrombotic infarcts upstream of the lesions. Therefore, the target of the treatment for the above diseases is to inhibit the progress and to eliminate the ischemic symptoms. Antiplatelet drugs and anticoagulants are often used therefor. […] ID3016511 (Compound 115), which is one of the compounds according to the present invention, is selected as an example and administered daily to a rat model of lactic acid induced peripheral circulatory disturbance used as an animal model of peripheral arterial obstruction to examine the drug's therapeutic effect.
13-week old Wister male rats were used in test groups of 10 rats. Each rat was fixed in a face-up position under anesthesia by 40 mg/kg of intraperitoneally administered pentobarbital sodium. The left femoral region was then incised and 0.1 ml of 5% lactic acid solution was administered into the femoral artery. Adhesives were applied dropwise at the lactic acid administered site for blood stanching. Thereafter, a penicillin G solution was added dropwise to prevent infections and the incised part was sutured. […] The solvent and the test solution were orally administered. Administration was carried out 2 hours before lactic acid administration and, thereafter, twice a day at an interval of at least 7 hours for 13 days repeatedly. […] The positive control material was administered 3 hours before the lactic acid administration, and it was repeatedly orally administered twice a day for 13 days in the same way as the above test compound. The progress of lesion on legs and feet was observed 3, 7, and 14 days after the lactic acid administration and the results were scored from 0 to 4 based on the following criteria:
1: nigrities limited to the tiptoe
2: nigrities reaching toe
Each toe was scored and the sum of scores for each toe was determined as a lesion index. When the damage reached the sole, 5 points were added.
The significant difference between the control group and the test material group was assayed by the non-parametric Dunnet's test. The significant difference between the control group and the positive control material group was assayed by the non-parametric Wilcoxon's test.

[2] = system: ovarian carcinoma cells (SKOV3); assay: Inhibitory activity against BrdU incorporation, LPA-stimulated ovarian carcinoma cells; format: cell-based, human; conditions: SKOV3, LPA 3 μM, FIG. 2B
Procedure: (§1) Human brain tumor cells (U87 MG) and ovarian carcinoma cells (SKOV3) suspended in serum-free DMEM were plated on a 96-well plate. 24 hours later, Compound 115 and LPA (3 μM) were added and the mixture was cultured for 16 hours, followed by the BrdU addition. Culture was continued for 3 hours from the addition of BrdU. Thereafter, the incorporation of BrdU into the cells was assayed based on the absorbance at 450 nm using the Cell proliferation ELISA system (RPN250, Amersham LIFE SCIENCE).

[3] = system: Human brain tumor cells (U87 MG); assay: Inhibitory activity against BrdU incorporation, LPA-stimulated brain tumor cells; format: cell-based; conditions: LPA 3 μM, FIG. 2A
Procedure: as §1

[4] = Solubility in water (remark); format: physicochemical; conditions: white powder

T1 sequence (Q92633 whole entry): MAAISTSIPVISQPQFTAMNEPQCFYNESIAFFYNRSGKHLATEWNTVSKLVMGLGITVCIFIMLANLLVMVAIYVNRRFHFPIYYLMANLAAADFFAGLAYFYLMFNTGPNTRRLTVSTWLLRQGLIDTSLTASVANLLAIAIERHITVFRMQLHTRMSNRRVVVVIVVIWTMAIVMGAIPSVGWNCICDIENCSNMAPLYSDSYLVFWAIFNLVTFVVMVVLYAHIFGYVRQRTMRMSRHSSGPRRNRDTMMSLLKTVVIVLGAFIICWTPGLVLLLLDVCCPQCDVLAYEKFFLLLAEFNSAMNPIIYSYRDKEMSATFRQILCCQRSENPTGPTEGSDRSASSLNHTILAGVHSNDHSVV

SMILES | IC50 (human EDG-2) [µM] | IC50 (Human EDG-2/HepG2 cells) [nM] | also measured
Cc1noc(-c2ccc(CNCCc3ccncc3)cc2)c1NC(=O)OC(C)c1ccccc1Cl (stereo not shown) [Compound 111, 1-(2-Chlorophenyl)ethyl N-{3-methyl-5-[4-({[2-(4-pyridyl)ethyl]amino}methyl)phenyl]-4-isoxazolyl}carbamate] | 10 to 30 | 1000 to 3000 | –
Cc1noc(-c2ccc(CSCC(O)CO)cc2)c1NC(=O)OC(C)c1ccccc1Cl (stereo not shown) [Compound 135] | 3 to 10 | 100 to 300 | –
CCOC(=O)COCc1ccc(-c2onc(C)c2NC(=O)OC(C)c2ccccc2Cl)cc1 (stereo not shown) [Compound 168, Ethyl 2-({4-[4-({[1-(2-chlorophenyl)ethoxy]carbonyl}amino)-3-methyl-5-isoxazolyl]-benzyl}oxy)acetate] | 3 to 10 | 1000 | –
Cc1noc(-c2ccc(CNCCc3cccnc3)cc2)c1NC(=O)OC(C)c1ccccc1Cl (stereo not shown) [Compound 110, 1-(2-Chlorophenyl)ethyl N-{3-methyl-5-[4-({[2-(3-pyridyl)ethyl]amino}methyl)-phenyl]-4-isoxazolyl}carbamate] | 10 to 30 | 300 to 1000 | –
Cc1noc(-c2cccc(CSCCS(=O)(=O)O)c2)c1NC(=O)OC(C)c1ccccc1Cl (stereo not shown) [Compound 158, 2-({3-[4-({[1-(2-Chlorophenyl)ethoxy]carbonyl}amino)-3-methyl-5-isoxazolyl]benzyl}-sulfanyl)-1-ethanesulfonic acid] | 3 to 10 | 1000 | –
Cc1cnc(CNCc2ccc(-c3onc(C)c3NC(=O)OC(C)c3ccccc3Cl)cc2)cn1 (stereo not shown) [Compound 114, 1-(2-Chlorophenyl)ethyl N-{3-methyl-5-[4-({[(5-methyl-2-pyrazyl)methyl]amino}-methyl)phenyl]-4-isoxazoly}carbamate] | 10 to 30 | 300 to 1000 | –
CCc1noc(-c2ccc(CSCCC(=O)O)cc2)c1NC(=O)OC(C)c1ccccc1Cl (stereo not shown) [Compound 147, 3-({4-[4-({[1-(2-Chlorophenyl)ethoxy]carbonyl}amino)-3-ethyl-5-isoxazolyl]benzyl}-sulfanyl)propanoic acid] | 3 to 10 | 30 to 100 | –
Cc1noc(-c2ccc(CNCC3CCCO3)cc2)c1NC(=O)OC(C)c1ccccc1Cl (stereo not shown) [Compound 104, 1-(2-Chlorophenyl)ethyl N-[3-methyl-5-(4-{[(tetrahydro-2-furanylmethyl)amino]-methyl}phenyl)-4-isoxazolyl]carbamate] | 10 to 30 | 3000 | –
C=CCSCc1cccc(-c2onc(C)c2NC(=O)OC(C)c2ccccc2Cl)c1 (stereo not shown) [Compound 141, 1-(2-Chlorophenyl)ethyl N-(5-{3-[(allylsulfanyl)methyl]phenyl}-3-methyl-4-isoxazolyl)-carbamate] | 3 to 10 | 300 to 1000 | –
CCOC(=O)CCNCc1ccc(-c2onc(C)c2NC(=O)OC(C)c2ccccc2Cl)cc1 (stereo not shown) [Compound 113, Ethyl 3-({4-[4-({[1-(2-chlorophenyl)ethoxy]carbonyl}amino)-3-methyl-5-isoxazolyl]-benzyl}amino)propanoate] | 10 to 30 | 100 to 300 | –
COC(=O)CCSCc1ccc(-c2onc(C)c2NC(=O)OC(C)c2ccccc2Cl)cc1 (stereo not shown) [Compound 115, Methyl 3-({4-[4-({[1-(2-chlorophenyl)ethoxy]carbonyl}amino)-3-methyl-5-isoxazolyl]-benzyl}sulfanyl)propanoate] | 1 to 3 | 10 to 30 | Score of lesion ([1]; 20 mg/kg twice/day p.o., 3 days after lactic acid injection): 2.6 ± 0.8; Score of lesion ([1]; 20 mg/kg twice/day p.o., 7 days after lactic acid injection): 4.3 ± 1.0; Score of lesion ([1]; 20 mg/kg twice/day p.o., 14 days after lactic acid injection): 6.9 ± 1.4; Score of lesion ([1]; 60 mg/kg twice/day p.o., 7 days after lactic acid injection): 1.9 ± 0.5; Progress of lesions in the feet and legs ([1]; dose of 60 mg/kg): inhibited the progress of lesions; Progress of lesion versus control group ([1]; repeated administration of 20 mg/kg for 14 days): equivalent level of progress with the control group; Concentration at which proliferation (BrdU incorporation) was inhibited in a concentration dependent manner [2]: ≥ 0.3 µM; Concentration at which proliferation (BrdU incorporation) was inhibited in a concentration dependent manner [3]: ≥ 0.3 µM; Solubility in water [4]: poor solubility in water

Now from value to compound, other results behind:

IC50 (human EDG-2) [µM] | IC50 (Human EDG-2/HepG2 cells) [nM] | SMILES | also measured
3 to 10 | 100 to 300 | C=CCSCc1ccc(-c2onc(C)c2NC(=O)OC(C)c2ccccc2Cl)cc1 (stereo not shown) [Compound 123, 1-(2-Chlorophenyl)ethyl N-(5-{4-[(allylsulfanyl)methyl]phenyl}-3-methyl-4-isoxazolyl)-carbamate] | –
3 to 10 | 1000 to 3000 | Cc1noc(-c2ccc(CCl)cc2)c1NC(=O)OC(c1ccccc1)C(F)(F)F (stereo not shown) [Compound 161, 2,2,2-Trifluoro-1-phenylethyl N-{5-[4-(chloromethyl)phenyl]-3-methyl-4-isoxazolyl}-carbamate] | –
30 to 100 | 300 to 1000 | CCNCc1ccc(-c2onc(C)c2NC(=O)OC(C)c2ccccc2Cl)cc1 (stereo not shown) [Compound 116, 1-(2-Chlorophenyl)ethyl N-(5-{4-[(ethylamino)methyl]phenyl}-3-methyl-4-isoxazolyl)-carbamate] | –
1 to 3 | 100 to 300 | COC(=O)CSCc1ccc(-c2onc(C)c2NC(=O)OC(C)c2ccccc2Cl)cc1 (stereo not shown) [Compound 118, Methyl 2-({4-[4-({[1-(2-chlorophenyl)ethoxy]carbonyl}-amino)-3-methyl-5-isoxazolyl]-benzyl}-sulfanyl)acetate] | –
3 to 10 | 30 to 100 | COC(=O)CCSCc1ccc(-c2onc(C)c2NC(=O)OC(c2ccccc2)C(F)(F)F)cc1 (stereo not shown) [Compound 162, Methyl 3-{[4-(3-methyl-4-{[(2,2,2-trifluoro-1-phenylethoxy)carbonyl]amino}-5-isoxazolyl)-benzyl]-sulfanyl}propanoate] | –
1 | 300 | Cc1noc(-c2ccc(C#N)cc2)c1NC(=O)OC(C)c1ccccc1Cl (stereo not shown) [Compound 47, 1-(2-Chlorophenyl)ethyl N-[5-(4-cyanophenyl)-3-methyl-4-isoxazolyl]carbamate] | –
3 to 10 | 30 to 100 | CCCSCc1ccc(-c2onc(C)c2NC(=O)OC(C)c2ccccc2Cl)cc1 (stereo not shown) [Compound 117, 1-(2-Chlorophenyl)ethyl N-(3-methyl-5-{4-[(propylsulfanyl)methyl]phenyl}-4-isoxazolyl)-carbamate] | –
10 to 30 | 100 to 300 | Cc1noc(-c2ccc(CSC(C)C(=O)O)cc2)c1NC(=O)OC(C)c1ccccc1Cl (stereo not shown) [Compound 148, 2-({4-[4-({[1-(2-Chlorophenyl)ethoxy]carbonyl}amino)-3-methyl-5-isoxazolyl]benzyl}-sulfanyl)propanoic acid] | –
3 to 10 | 300 to 1000 | CCc1noc(-c2ccc(CCl)cc2)c1NC(=O)OC(c1ccccc1)C(F)(F)F (stereo not shown) [Compound 164, 2,2,2-Trifluoro-1-phenylethyl N-{5-[4-(chloromethyl)phenyl]-3-ethyl-4-isoxazolyl}carbamate] | –
